Here are results for three substances from patent US6869930B1, “Acylated insulin” (priority 1993, dated 2005).

Data set [1] can be described thus: Lipophilicity relative to human insulin, k′rel, by isocratic RP-HPLC (LiChrosorb RP18). The class given is physicochemical. The settings on record: pH 7.3. How it is done:
The elution was monitored by following the UV absorption of the eluate at 214 nm. Void time, t0, was found by injecting 0.1 mM sodium nitrate.

The next data set deals with rabbits. As to the kind of experiment: Single day retardation test: prolongation of the blood glucose lowering effect in rabbits. The class given is in vivo.

Procedure for rabbits: The degree of prolongation of the blood glucose lowering effect was studied in rabbits. Each insulin derivative was tested by subcutaneous injection of 12 nmol thereof in, each of six rabbits in the single day retardation test. Blood sampling for glucose analysis was performed before injection and at 1, 2, 4 and 6 hours after injection. The glucose values found are expressed as percent of initial values.

For “Lys^B29(N^ε-[N^α-tetradecanoyl Aad(−)-OH]) des(B30) Human Insulin [Example 42]”, the “lipophilicity relative to human insulin, k′rel” value in data set [1] worked out at 21.

Regarding “Lys^B29(N^ε-[N^α-tetradecanoyl-γ-carboxy-Glu-]) des(B30) Human Insulin [Example 43]”, in data set [1], the “lipophilicity relative to human insulin, k′rel” value was 10.

“N^εB29-lithocholoyl insulin [N^εB29-lithocholoyl insulin (Zn-free)]”: the “Relative Lipophilicity” value in data set [1] came out at 51.6. The “Blood glucose, % of initial 1 h” value in the data set on rabbits (12 nmol subcutaneous, 1 h after injection, 3 Zn^2+/insulin hexamer except where Zn-free) is listed as 98.3 % of initial. For the same substance, in the data set with rabbits (12 nmol subcutaneous, 2 h after injection, 3 Zn^2+/insulin hexamer except where Zn-free), the “Blood glucose, % of initial 2 h” value was 92.3 % of initial. In addition, the “Blood glucose, % of initial 4 h” value in the data set on rabbits (12 nmol subcutaneous, 4 h after injection, 3 Zn^2+/insulin hexamer except where Zn-free) was 100.5 % of initial. Also, the “Blood glucose, % of initial 6 h” value in the data set with rabbits (12 nmol subcutaneous, 6 h after injection, 3 Zn^2+/insulin hexamer except where Zn-free) is recorded as 93.4 % of initial. In the data set with rabbits (calculated from blood glucose values, scaled: 100 = bovine ultralente insulin, 0 = Actrapid insulin), the Index of protraction is 115.
